Measured values taken from patent US20240343694A1, “PYRIMIDINE DERIVATIVE, METHOD FOR PREPARING SAME, AND PHARMACEUTICAL COMPOSITION FOR PREVENTING OR TREATING CANCER COMPRISING SAME AS ACTIVE INGREDIENT” (KOREA RESERARCH INSTITUTE OF CHEMICAL TECHNOLOGY, priority 2021, published 2024).

Tests used:
[1] = molecular target: EGFR A763_Y764insFHEA (Homo sapiens (Human), UniProt P00533, INS763FHEA); test: HTRF inhibitory activity against EGFR mutant enzyme (EGFR A763_Y764insFHEA); format: biochemical; conditions: recombinant enzyme, 37° C. for 2 hours
Summary of the method: (§1)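 IC50 was derived from 7 concentrations by HTRF: Eu-anti-pTyr and streptavidin-XL665 for 1 h at room temperature, with the 615/665 nm ratio read. The kinase reaction ran 2 h at 37 °C in Tris pH 7.5 buffer with ATP (stated 50 mM) and biotinylated peptide (0.5 mM). Enzyme was preincubated with compound before substrate was added.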

[2] = system: Ba/F3 HER2 G776delinsVC; test: Growth inhibition of Ba/F3 HER2 mutant cells (CellTiter-Glo); format: cell-based; conditions: Mus musculus, BaF3, 72 hours
Summary of the method: (§2)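 Ba/F3 cells carrying HER2 A775_G776insYVMA or G776delinsVC were seeded at 1,000 cells/well and dosed 24 h later at 0.01-10 μM (8 concentrations including 0). After 72 h, viability was read as cellular ATP by CellTiter-Glo luminescence, and IC50 values were calculated from the 8-point curves.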

[3] = system: Ba/F3 HER2 A775_G776insYVMA; test: as above; format: cell-based; conditions: Mus musculus, BaF3, 72 hours
Summary of the method: as §2

[4] = molecular target: EGFR del19 (Homo sapiens (Human), UniProt P00533, DEL746-750); test: HTRF inhibitory activity against EGFR mutant enzyme (EGFR del19); format: biochemical; conditions: recombinant enzyme, 37° C. for 2 hours
Summary of the method: as §1

[5] = system: Ba/F3 EGFR D770_N771insSVD; test: Growth inhibition of Ba/F3 EGFR mutant cells (CellTiter-Glo); format: cell-based; conditions: Ba/F3 EGFR-D770-N771ins_SVD, 72 hours
Experimental: (§3) The activity of the compounds of the present invention against Ba/F3 EGFR V769_D770insASV and Ba/F3 EGFR D770_N771insSVD mutant cell lines was measured using the CellTiter-Glo system purchased from Promega as follows. CellTiter-Glo assay is a method to measure cell viability by monitoring ATP present in cells. Ba/F3 EGFR V769_D770insASV and Ba/F3 EGFR D770_N771insSVD mutant cell lines were purchased from Crown Biosciences. Ba/F3 EGFR V769_D770insASV and Ba/F3 EGFR D770_N771insSVD mutant cell lines were cultured in RPMI containing 10% FBS and 1% penicillin-streptomycin with 1 μg/mL of puromycin in a 5% CO2 incubator at 37° C.
(§4) The analysis of the ability of the compounds to inhibit the growth of EGFR mutant cells was performed according to the following method. 1,000 cells/100 μL were seeded in a 96-well cell culture plate, and 24 hours thereafter, the compounds represented by Formula 1 were treated with 0 μM, 0.01 μM, 0.03 μM, 0.1 μM, 0.3 μM, 1 μM, 3 μM, and 10 μM. After incubating for 72 hours, the plate treated with the compounds were left at room temperature for 30 minutes, 100 μL of a reagent was further added thereto, and then shaken at room temperature for 10 minutes. Finally, using equipment, the ratio of […] was measured to confirm the cell growth inhibition ability of the compounds. The measured values at 8 compound concentrations were analyzed using the Prism program (version 5.01, Graphpad Software, Inc.), and the IC50 (μM) values, which are measures of the compounds' inhibitory ability, were calculated.

[6] = system: Ba/F3 EGFR V769_D770insASV; test: as above; format: cell-based; conditions: 72 hours
Experimental: as §3, §4

[7] = molecular target: HER2 A775_G776insYVMA (Homo sapiens (Human), UniProt P04626, INS775YVMA); test: HTRF inhibitory activity against HER2 mutant enzyme; format: biochemical; conditions: recombinant enzyme, 37° C. for 2 hours
Summary of the method: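 Recombinant HER2 A775_G776insYVMA preincubated with compound, then […] and biotinylated peptide ([…]) added; 2 h at 37 °C in Tris-HCl pH 7.5 buffer with MgCl2, DTT. HTRF detection (Eu anti-phosphotyrosine/streptavidin-XL665); IC50 from 7 concentrations.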

Sequence of EGFR del19 (P00533 other isoform, or with tags, fused parts or gaps del 1-668/del 746-750 limits assumed): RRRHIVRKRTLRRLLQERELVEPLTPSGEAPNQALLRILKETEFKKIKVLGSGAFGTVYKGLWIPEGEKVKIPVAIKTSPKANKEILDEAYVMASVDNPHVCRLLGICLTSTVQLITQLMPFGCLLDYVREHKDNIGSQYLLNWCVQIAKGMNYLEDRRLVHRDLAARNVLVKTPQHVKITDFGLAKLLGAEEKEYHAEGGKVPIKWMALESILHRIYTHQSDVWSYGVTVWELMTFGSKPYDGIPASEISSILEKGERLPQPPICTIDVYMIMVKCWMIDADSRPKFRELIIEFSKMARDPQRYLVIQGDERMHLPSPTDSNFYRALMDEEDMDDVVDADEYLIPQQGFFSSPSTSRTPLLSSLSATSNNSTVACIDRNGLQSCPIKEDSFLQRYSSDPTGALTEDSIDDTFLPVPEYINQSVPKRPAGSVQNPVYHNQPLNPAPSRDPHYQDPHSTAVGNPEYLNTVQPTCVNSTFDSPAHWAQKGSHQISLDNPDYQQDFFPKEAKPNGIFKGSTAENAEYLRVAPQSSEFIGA
Sequence of HER2 A775_G776insYVMA (P04626 other isoform, or with tags, fused parts or gaps del 1-675/ins YVMA behind 775 limits assumed): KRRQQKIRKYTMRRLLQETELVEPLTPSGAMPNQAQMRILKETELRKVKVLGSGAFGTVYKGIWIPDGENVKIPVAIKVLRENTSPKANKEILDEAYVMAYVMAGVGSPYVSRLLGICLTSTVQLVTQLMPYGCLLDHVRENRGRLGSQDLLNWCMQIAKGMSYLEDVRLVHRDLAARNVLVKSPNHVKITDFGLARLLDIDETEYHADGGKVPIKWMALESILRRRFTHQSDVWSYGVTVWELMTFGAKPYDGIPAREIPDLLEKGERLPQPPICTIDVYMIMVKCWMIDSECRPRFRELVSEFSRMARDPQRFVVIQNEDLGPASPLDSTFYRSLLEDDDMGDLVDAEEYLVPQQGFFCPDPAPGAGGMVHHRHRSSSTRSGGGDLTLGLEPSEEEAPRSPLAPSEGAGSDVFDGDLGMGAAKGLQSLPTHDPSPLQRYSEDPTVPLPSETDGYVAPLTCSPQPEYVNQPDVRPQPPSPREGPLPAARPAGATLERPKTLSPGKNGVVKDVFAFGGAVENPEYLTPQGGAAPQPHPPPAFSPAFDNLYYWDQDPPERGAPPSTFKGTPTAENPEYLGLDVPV
Sequence of EGFR A763_Y764insFHEA (P00533 other isoform, or with tags, fused parts or gaps del 1-694/ins FHEA behind 763 limits assumed): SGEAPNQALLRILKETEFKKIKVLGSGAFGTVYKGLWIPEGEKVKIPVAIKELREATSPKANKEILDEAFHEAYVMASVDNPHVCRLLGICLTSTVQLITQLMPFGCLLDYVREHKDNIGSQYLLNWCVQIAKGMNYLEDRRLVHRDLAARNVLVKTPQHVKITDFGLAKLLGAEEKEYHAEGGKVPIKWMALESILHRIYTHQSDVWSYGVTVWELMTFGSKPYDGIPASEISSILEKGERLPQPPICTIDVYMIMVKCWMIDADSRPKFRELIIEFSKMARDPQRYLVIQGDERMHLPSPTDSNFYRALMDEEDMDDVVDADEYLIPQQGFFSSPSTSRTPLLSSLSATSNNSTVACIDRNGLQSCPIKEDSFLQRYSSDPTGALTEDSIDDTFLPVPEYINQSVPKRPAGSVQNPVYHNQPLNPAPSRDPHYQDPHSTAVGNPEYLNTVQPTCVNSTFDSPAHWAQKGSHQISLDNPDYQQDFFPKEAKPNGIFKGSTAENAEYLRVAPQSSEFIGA

SMILES	IC50 [1]	IC50 [2]	IC50 [3]	IC50 [4]	IC50 [5]	IC50 [6]	IC50 [7]
CC#CC(=O)Nc1cc(Nc2ncc(Cl)c(Nc3ccc(C)cc3N(C)S(C)(=O)=O)n2)c(OC)cc1N(C)CCN(C)C [Example 98, N-(5-((5-chloro-4-((4-methyl-2-(N-methylmethylsulfonamido)phenyl)amino)pyrimidin-2-yl)amino)-2-((2-(dimethylamino)ethyl)(methyl)amino)-4-methoxyphenyl) but-2-inamide]	9 nM	< 10 nM	> 100 nM	< 1 nM	10 to 30 nM	10 to 30 nM	53 nM
CC#CC(=O)Nc1cc(Nc2ncc(Cl)c(Nc3cccc4c3N(S(C)(=O)=O)CC4)n2)c(OC)cc1N(C)CCN(C)C [Example 96, N-(5-((5-chloro-4-((1-(methylsulfonyl)indolin-7-yl)amino)pyrimidin-2-yl)amino)-2-((2-(dimethylamino)ethyl)(methyl)amino)-4-methoxyphenyl) but-2-inamide]	10 nM	< 10 nM	> 100 nM	1 nM	< 10 nM	< 10 nM	87 nM
C=CC(=O)Nc1cc(Nc2ncc(Cl)c(Nc3ccc(C)cc3N(C)C(C)=O)n2)c(OC)cc1N(C)CCN(C)C [Example 87, N-(5-((5-chloro-4-((4-methyl-2-(N-methylacetamido)phenyl)amino)pyrimidin-2-yl)amino)-2-((2-(dimethylamino)ethyl)(methyl)amino)-4-methoxyphenyl)acrylamide]	24 nM	< 10 nM	> 100 nM	4 nM	30 to 50 nM	30 to 50 nM	107 nM
C=CC(=O)Nc1cc(Nc2ncc(Cl)c(Nc3cccc(C)c3N(C)S(C)(=O)=O)n2)c(OC)cc1N(C)CCN(C)C [Example 38, N-(5-((5-chloro-4-((3-methyl-2-(N-methylmethylsulfonamido)phenyl)amino)pyrimidin-2-yl)amino)-2-((2-(dimethylamino)ethyl)(methyl)amino)-4-methoxyphenyl)acrylamide]	2 nM	< 10 nM	30 to 50 nM	< 1 nM	30 to 50 nM	30 to 50 nM	14 nM
C=CC(=O)Nc1cc(Nc2ncc(Cl)c(Nc3cccc(CC)c3NS(C)(=O)=O)n2)c(OC)cc1N(C)CCN(C)C [Example 40, N-(5-((5-chloro-4-((3-ethyl-2-(methylsulfonamido)phenyl)amino)pyrimidin-2-yl)amino)-2-((2-(dimethylamino)ethyl)(methyl)amino)-4-methoxyphenyl)acrylamide]	1 nM	< 10 nM	30 to 50 nM	< 1 nM	30 to 50 nM	30 to 50 nM	4 nM
C=CC(=O)Nc1cc(Nc2ncc(Cl)c(Nc3cccc4c3N(S(C)(=O)=O)CC4)n2)c(OC)cc1N(C)CCNC [Example 57, N-(5-((5-chloro-4-((1-(methylsulfonyl)indolin-7-yl)amino)pyrimidin-2-yl)amino)-4-methoxy-2-(methyl(2-(methylamino)ethyl)amino)phenyl)acrylamide]	< 1 nM	50 to 100 nM	50 to 100 nM	< 1 nM	50 to 100 nM	50 to 100 nM	< 1 nM
C=CC(=O)Nc1cc(Nc2ncc(Cl)c(Nc3cccc(C)c3NS(C)(=O)=O)n2)c(OC)cc1N(C)CCN(C)C [Example 36, N-(5-((5-chloro-4-((3-methyl-2-(methylsulfonamido)phenyl)amino)pyrimidin-2-yl)amino)-2-((2-(dimethylamino)ethyl)(methyl)amino)-4-methoxyphenyl)acrylamide]	1 nM	10 to 30 nM	50 to 100 nM	< 1 nM	10 to 30 nM	10 to 30 nM	10 nM
C=CC(=O)Nc1cc(Nc2ncc(Cl)c(Nc3ccc(C)c(C)c3N(C)S(C)(=O)=O)n2)c(OC)cc1N(C)CCN(C)C [Example 43, N-(5-((5-chloro-4-((3,4-dimethyl-2-(N-methylmethylsulfonamido)phenyl)amino)pyrimidin-2-yl)amino)-2-((2-(dimethylamino)ethyl)(methyl)amino)-4-methoxyphenyl)acrylamide]	< 1 nM	< 10 nM	30 to 50 nM	< 1 nM	50 to 100 nM	< 10 nM	8 nM
C=CC(=O)Nc1cc(Nc2ncc(Cl)c(Nc3cccc4c3N(C(C)=O)CC4)n2)c(OC)cc1N(C)CCNC [Example 92, N-(5-((4-((1-acetylindolin-7-yl)amino)-5-chloropyrimidin-2-yl)amino)-4-methoxy-2-(methyl(2-(methylamino)ethyl)amino)phenyl)acrylamide]	1 nM	< 10 nM	30 to 50 nM	< 1 nM	10 to 30 nM	10 to 30 nM	5 nM
C=CC(=O)Nc1cc(Nc2ncc(Cl)c(Nc3ccccc3NS(C)(=O)=O)n2)c(OC)cc1N(C)CCNC(C)C [Example 24, N-(5-((5-chloro-4-((2-(methylsulfonamido)phenyl)amino)pyrimidin-2-yl)amino)-2-((2-(isopropylamino)ethyl)(methyl)amino)-4-methoxyphenyl)acrylamide]	3 nM	10 to 30 nM	> 100 nM	< 1 nM	> 100 nM	> 100 nM	27 nM
C=CC(=O)Nc1cc(Nc2ncc(Cl)c(Nc3ccccc3N(C)S(C)(=O)=O)n2)c(OC)cc1N(C)CCN(C)C [Example 29, N-(5-((5-chloro-4-((2-(N-methylmethylsulfonamido)phenyl)amino)pyrimidin-2-yl)amino)-2-((2-(dimethylamino)ethyl)(methyl)amino)-4-methoxyphenyl)acrylamide]	< 1 nM	10 to 30 nM	50 to 100 nM	< 1 nM	10 to 30 nM	10 to 30 nM	5 nM
C=CC(=O)Nc1cc(Nc2ncc(Cl)c(Nc3ccccc3N(C)C(C)=O)n2)c(OC)cc1N(C)CCN(C)C [Example 89, N-(5-((5-chloro-4-((2-(N-methylacetamido)phenyl)amino)pyrimidin-2-yl)amino)-2-((2-(dimethylamino)ethyl)(methyl)amino)-4-methoxyphenyl)acrylamide]	77 nM	10 to 30 nM	> 100 nM	20 nM	30 to 50 nM	30 to 50 nM	479 nM
C=CC(=O)Nc1cc(Nc2ncc(Cl)c(Nc3cccc4c3N(C(=O)CC)CC4)n2)c(OC)cc1N(C)CCN(C)C [Example 93, N-(5-((5-chloro-4-((1-propionylindolin-7-yl)amino)pyrimidin-2-yl)amino)-2-((2-(dimethylamino)ethyl)(methyl)amino)-4-methoxyphenyl)acrylamide]	2 nM	< 10 nM	10 to 30 nM	1 nM	10 to 30 nM	10 to 30 nM	11 nM
C=CC(=O)Nc1cc(Nc2ncc(Cl)c(Nc3cccc4c3N(S(=O)(=O)CC)CC4)n2)c(OC)cc1N(C)CCN(C)C [Example 56, N-(5-((5-chloro-4-((1-(ethylsulfonyl)indolin-7-yl)amino)pyrimidin-2-yl)amino)-2-((2-(dimethylamino)ethyl)(methyl)amino)-4-methoxyphenyl)acrylamide]	< 1 nM	< 10 nM	< 10 nM	< 1 nM	< 10 nM	< 10 nM	< 1 nM
